According to patent EP2439188B1, “p-Menthane-3,8-diol derivatives and insect repellents comprising them” (priority 2010, dated 2012):
Like-named read-outs stand apart in the source and are kept apart here.

How the values were obtained:
Solubility in water = assay type: physicochemical
Excerpt: Tabelle 1 zeigt die Wasserlöslichkeit der erfindungsgemäßen Verbindung PMD-S (para-Menthane-3,8-diol Succinat) im Vergleich zu üblichen in Insektenschutzmitteln eingesetzten Wirkstoffen. Tabelle 1

HeLa-Zellen = test: cells; assay type: cell-based; details: Homo sapiens, concentration at which 50 % of the cells die, relative to untreated control cells
Excerpt: (§1) Hierzu wurden Zytotoxizitätsstudien an HeLa-Zellen und an Keratinozyten (SK-Mel-28) durchgeführt. Erstere Tests gelten als gute Alternative zu in vivo Draize Augenreizungstests, während letztere ein gutes Modell für die Hautkompatibilität sind.

[1] = system: Keratinozyten (SK-Mel-28); test: cells; assay type: cell-based; details: Homo sapiens, SK-MEL-28, SK-Mel-28; concentration at which 50 % of the cells die, relative to untreated control cells; read-out: Keratinocyten Zellen IC50
Excerpt: as §1

Löslichkeit in Wasser (Solubility in water)	IC50 (HeLa-Zellen) [µM]	IC50 [1] [µM]	Löslichkeit in Wasser (Solubility in water; bei 25°C) [g/L bei 25 °C]	Structure (SMILES)	Löslichkeit in Wasser (Solubility in water; bei 20°C) [g/L bei 20 °C]
				CC[C@@H](C)OC(=O)N1CCCC[C@@H]1CCO (racemic) [KBR 3023, (RS)-sec-butyl-(RS)-2-(2hydroxyethyl) piperidine-1-carboxylat]	8.2
1 g/L bei 25 °C	12.4 ± 1.89	8.1 ± 3.41		CCN(CC)C(=O)c1cccc(C)c1 [DEET, N,N-Diethyl-m-methylbenzamid]	
70 g/L bei 20 °C	12.5 ± 1.17	17.5 ± 2.76		CCCCN(CCC(=O)OCC)C(C)=O [IR 3535, Ethyl-3-[(acetyl)(butyl)amino]propanoat]	
		14.2 ± 5.23	0.29	CC1CCC(C(C)(C)O)C(O)C1 (stereo not drawn) [PMD, para-Menthan-3,8-diol]	
